# Like-named read-outs stand apart in the source and are kept apart here.
# Target: PAI-1 (Homo sapiens, UniProt P05121)
# Experiment: biochemical
# Conditions: for inhibition at 100 µM / inhibition at 6.25 µM / inhibition at 12.5 µM / inhibition at 25 µM / inhibition at 50 µM / inhibition at 20 µM: read-out: Degree of inhibition in PAI chromogenic substrate assay; for IC50: PAI chromogenic substrate assay, read-out: IC50
# [1] = 20 μM (third part of Table 1), 20 µM
# PAI-1, sequence (P05121 24-402): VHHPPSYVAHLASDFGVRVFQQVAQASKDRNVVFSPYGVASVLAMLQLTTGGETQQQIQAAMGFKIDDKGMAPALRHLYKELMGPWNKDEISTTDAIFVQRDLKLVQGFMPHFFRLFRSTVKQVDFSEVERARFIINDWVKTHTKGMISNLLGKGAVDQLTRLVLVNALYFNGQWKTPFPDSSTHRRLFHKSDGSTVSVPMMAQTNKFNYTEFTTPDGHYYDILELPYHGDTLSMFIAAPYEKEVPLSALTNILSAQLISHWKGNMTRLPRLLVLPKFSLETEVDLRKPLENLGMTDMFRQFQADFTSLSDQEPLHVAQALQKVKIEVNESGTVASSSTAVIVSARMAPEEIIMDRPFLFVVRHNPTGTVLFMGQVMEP
smiles,measurement,setting,value
"CN(C)CCOc1ccccc1/C=c1\[nH]c(=O)/c(=C/c2ccccc2)[nH]c1=O [Compound 1946, (3Z,6Z)-3-Benzylidene-6-(2-(2-dimethylaminoethoxy)benzylidene)-2,5-piperazinedione]",Degree of inhibition in PAI chromogenic substrate assay,12.5 μM,1%
same,Degree of inhibition in PAI chromogenic substrate assay,25 μM,1%
same,Degree of inhibition in PAI chromogenic substrate assay,50 μM,1%
same,Degree of inhibition in PAI chromogenic substrate assay,100 μM,7%
"CN(C)CCCOc1ccc(/C=c2\[nH]c(=O)/c(=C/c3ccc(C(N)=O)cc3)[nH]c2=O)cc1 [Compound 5254, 4-((3Z,6Z)-6-(4-(3-Dimethylaminopropoxy)benzylidene)-2,5-dioxo-3-piperazinylidene)methylbenzamide]",Degree of inhibition in PAI chromogenic substrate assay,[1],76%
same,inhibition at 100 µM,100 μM (third part of Table 1),79%
same,IC50,,35 µM
"CN(C)CCOc1ccc(/C=c2\[nH]c(=O)/c(=C/c3ccc(F)cc3F)[nH]c2=O)cc1 [Compound 1977, (3Z,6Z)-3-(2,4-Difluorobenzylidene)-6-(4-(2-dimethylaminoethoxy)benzylidene)-2,5-piperazinedione]",inhibition at 6.25 µM,6.25 μM,0%
same,inhibition at 12.5 µM,12.5 μM,20%
same,inhibition at 25 µM,25 μM,47%
same,inhibition at 50 µM,50 μM,47%
same,inhibition at 100 µM,100 μM,54%
"CN(C)CCCOc1ccc(/C=c2\[nH]c(=O)/c(=C/c3ccc4c(c3)OCO4)[nH]c2=O)cc1 [Compound 5201, (3Z,6Z)-6-(4-(3-Dimethylaminopropoxy)benzylidene)-3-(3,4-methylenedioxybenzylidene)-2,5-piperazinedione]",inhibition at 20 µM,20 μM (third part of Table 1),43%
same,inhibition at 100 µM,100 μM (third part of Table 1),47%
same,IC50,,2.5 µM
CC(=O)Nc1ccccc1/C=c1\[nH]c(=O)/c(=C/c2ccc(OCCCN(C)C)cc2)[nH]c1=O [Compound 5259],inhibition at 20 µM,20 μM (third part of Table 1),10%
"CN(C)CCCOc1ccc(/C=c2\[nH]c(=O)/c(=C/c3ccc(C(=O)NCCCc4ccccc4)cc3)[nH]c2=O)cc1 [Compound 5346, N-(3-Phenylpropyl)-4-((3Z,6Z)-6-(4-(3-Dimethylaminopropoxy)benzylidene)-2,5-dioxo-3-piperazinylidene)methylbenzamide]",inhibition at 20 µM,20 μM (third part of Table 1),15%
CN(C)CCCOc1ccc(/C=c2\[nH]c(=O)/c(=C/c3ccc(C#N)cc3)[nH]c2=O)cc1 [Compound 5348],inhibition at 20 µM,20 μM (third part of Table 1),15%
"CN(C)CCCOc1ccc(/C=c2\[nH]c(=O)/c(=C/c3ccc(C(F)(F)F)cc3)[nH]c2=O)cc1 [Compound 5239, (3Z,6Z)-3-(4-(3-Dimethylaminopropoxy)benzylidene)-6-(4-trifluoromethylbenzylidene)-2,5-piperazinedione]",inhibition at 20 µM,20 μM (third part of Table 1),65%
same,inhibition at 100 µM,100 μM (third part of Table 1),68%
same,IC50,,7 µM
"CN(C)CCCOc1ccc(/C=c2\[nH]c(=O)/c(=C/c3ccccc3Cl)[nH]c2=O)cc1 [Compound 5249, (3Z,6Z)-3-(2-Chlorobenzylidene)-6-(4-(3-dimethylaminopropoxy)benzylidene)-2,5-piperazinedione]",inhibition at 20 µM,20 μM (third part of Table 1),10%
same,inhibition at 100 µM,100 μM (third part of Table 1),55%
CC(=O)Nc1ccccc1/C=c1\[nH]c(=O)/c(=C/c2ccc(OCCCN(C)C)cc2)[nH]c1=O [Compound 5248],inhibition at 100 µM,100 μM (third part of Table 1),10%
CN(C)CCCOc1ccc(/C=c2\[nH]c(=O)/c(=C/c3cccc(Cl)c3)[nH]c2=O)cc1 [Compound 5240],Degree of inhibition in PAI chromogenic substrate assay,[1],65%
same,Degree of inhibition in PAI chromogenic substrate assay,"100 μM (third part of Table 1), 100 µM",46%
same,IC50,,6.5 µM
"Cc1ccccc1/C=c1\[nH]c(=O)/c(=C/c2ccc(OCCCN(C)C)cc2)[nH]c1=O [Compound 5186, (3Z,6Z)-6-(4-(3-Dimethylaminopropoxy)benzylidene)-3-(2-methylbenzylidene)-2,5-piperazinedione]",inhibition at 20 µM,20 μM (third part of Table 1),10%
same,inhibition at 100 µM,100 μM (third part of Table 1),46%
"COc1ccc(/C=c2\[nH]c(=O)/c(=C/c3ccc(OC(=O)CC(C)(C)C)cc3)[nH]c2=O)cc1 [Compound 1885, (3Z,6Z)-3-(4-(3,3-dimethylbutanoyloxy)benzylidene)-6-(4-methoxybenzylidene)-2,5-piperazinedione]",inhibition at 6.25 µM,6.25 μM,0%
same,inhibition at 12.5 µM,12.5 μM,0%
same,inhibition at 25 µM,25 μM,2%
same,inhibition at 50 µM,50 μM,31%
same,inhibition at 100 µM,100 μM,54%
"COc1ccc(/C=c2\[nH]c(=O)/c(=C/c3ccc(OCCCN(C)C)cc3)[nH]c2=O)cc1 [Compound 5234, (3Z,6Z)-3-(4-(3-Dimethylaminopropoxy)benzylidene)-6-(4-methoxybenzylidene)-2,5-piperazinedione]",inhibition at 100 µM,100 μM (third part of Table 1),10%
"CN(C)CCOc1ccc(/C=c2\[nH]c(=O)/c(=C/c3ccccc3)[nH]c2=O)cc1 [Compound 1908, (3Z,6Z)-3-Benzylidene-6-(4-(2-dimethylaminoethoxy)benzylidene)-2,5-piperazinedione]",Degree of inhibition in PAI chromogenic substrate assay,6.25 μM,12%
same,Degree of inhibition in PAI chromogenic substrate assay,12.5 μM,29%
same,Degree of inhibition in PAI chromogenic substrate assay,25 μM,66%
same,Degree of inhibition in PAI chromogenic substrate assay,50 μM,69%
same,Degree of inhibition in PAI chromogenic substrate assay,100 μM,74%
CN(C)CCCOc1ccc(/C=c2\[nH]c(=O)/c(=C/c3ccc(Br)cc3)[nH]c2=O)cc1 [Compound 5360],inhibition at 20 µM,20 μM (third part of Table 1),59%
same,IC50,,3.5 µM
"CN(C)CCCOc1ccc(/C=c2\[nH]c(=O)/c(=C/c3ccccc3[N+](=O)[O-])[nH]c2=O)cc1 [Compound 5210, (3Z,6Z)-6-(4-(3-Dimethylaminopropoxy)benzylidene)-3-(2-nitrobenzylidene)-2,5-piperazinedione]",IC50,,67 µM
"CN(C)CCOc1ccc(/C=c2\[nH]c(=O)/c(=C/c3ccccc3)[nH]c2=O)cc1 [Compound 1954, (3Z,6Z)-6-Benzylidene-3-(4-(2-dimethylaminoethoxy)benzylidene)-2,5-piperazinedione]",Degree of inhibition in PAI chromogenic substrate assay,6.25 μM,37%
same,Degree of inhibition in PAI chromogenic substrate assay,12.5 μM,57%
same,Degree of inhibition in PAI chromogenic substrate assay,25 μM,67%
same,Degree of inhibition in PAI chromogenic substrate assay,50 μM,43%
same,Degree of inhibition in PAI chromogenic substrate assay,100 μM,16%
CN(C)CCOc1ccc(/C=c2\[nH]c(=O)/c(=C/c3ccccc3)[nH]c2=O)cc1 [Compound 1956],Degree of inhibition in PAI chromogenic substrate assay,6.25 μM,31%
same,Degree of inhibition in PAI chromogenic substrate assay,12.5 μM,65%
same,Degree of inhibition in PAI chromogenic substrate assay,25 μM,69%
same,Degree of inhibition in PAI chromogenic substrate assay,50 μM,69%
same,Degree of inhibition in PAI chromogenic substrate assay,100 μM,61%
"CN(C)Cc1ccc(/C=c2\[nH]c(=O)/c(=C/c3ccccc3)[nH]c2=O)cc1 [Compound 1913, (3Z,6Z)-3-Benzylidene-6-(4-dimethylaminomethylbenzylidene)-2,5-piperazinedione]",inhibition at 6.25 µM,6.25 μM,15%
same,inhibition at 12.5 µM,12.5 μM,14%
same,inhibition at 25 µM,25 μM,19%
same,inhibition at 50 µM,50 μM,54%
same,inhibition at 100 µM,100 μM,71%
"CSc1ccc(/C=c2\[nH]c(=O)/c(=C/c3ccc(OCCCN(C)C)cc3)[nH]c2=O)cc1 [Compound 5385, (3Z,6Z)-3-(4-(3-Dimethylaminopropoxy)benzylidene)-6-(4-methylthiobenzylidene)-2,5-piperazinedione]",IC50,,2 µM
"CN(C)CCCOc1ccc(/C=c2\[nH]c(=O)/c(=C/c3ccccc3)[nH]c2=O)cc1 [Compound 1852, (3Z,6Z)-6-Benzylidene-3-(4-(3-dimethylaminopropoxy)benzylidene)-2,5-piperazinedione]",inhibition at 6.25 µM,6.25 μM,4%
same,inhibition at 12.5 µM,12.5 μM,67%
same,inhibition at 25 µM,25 μM,74%
same,inhibition at 50 µM,50 μM,71%
same,inhibition at 100 µM,100 μM,72%

# From patent US5902812A, “Pharmaceutical piperazine compounds” (Xenova Limited, priority 1994, dated 1999)
